This experiment concerns the target T1, xoSNAT1 (Xanthomonas oryzae, UniProt A0ACG7R854).
T1 construct: gene DZA53_20490
Particulars: serotonin 0.5 mM; acetyl-CoA 0.5 mM; 100 mM potassium phosphate pH 8.8; 35 °C.

Regarding `NCCc1c[nH]c2ccc(O)cc12` [serotonin], the “LC-MS/MS of serotonin and product” value is “GST and xoSNAT2 have no SNAT activity, while xoSNAT1 showed only low activity”.

These data come from article PMC9914633 (International Journal of Environmental Research and Public …, 2023).
